From patent US12624067B2, “Cyclic peptide, cell scaffold material, cell separating material, and medium” (FUJIFILM Corporation, priority 2019, dated 2026) come the findings set out here.

SMILES strings stand for the structures. Numbered stars: 1 amine (or outer) side, 2 acyl side, 3 side chain; on linkers, the order of the positions; unused ones are H or OH. Bridge positions count the residues as written; N and C are the ends. Square brackets hold non-standard residues; d marks the D form. Peptide text beside a SMILES is read from it. Pen = CC(C)(S)[C@H](N)C(=O)O; hCys = N[C@@H](CCS)C(=O)O; Orn = NCCC[C@H](N)C(=O)O; Dab = NCC[C@H](N)C(=O)O; X1 = O=C(C[*:1])[*:2]; X2 = O=C(C[*:2])[*:1]

Data set [1] in a line: Evaluation of molecule stability (alkali treatment, LC/MS residual rate). The format is physicochemical. The conditions noted are these: 500 μM peptide plus equivalent of 1 M sodium hydroxide, 15° C., 20 minutes, LC/MS peak area. How it is done:
The molecule stability of the cyclic peptide was evaluated by analyzing the alkali-treated cyclic peptide aqueous solution by liquid chromatography mass spectroscopy (LC/MS).
The alkali treatment was carried out by the following method. A 500 μM cyclic peptide aqueous solution was prepared, an equivalent of 1 M sodium hydroxide aqueous solution was added to this aqueous solution, and the resultant mixture was incubated at 15° C. for 20 minutes to obtain an alkali-treated cyclic peptide aqueous solution. The cyclic peptide residual rate was calculated by setting the total area of all peaks of the cyclic peptide before alkali treatment in LC/MS to 100% and determining the proportion of the total area of all peaks in LC/MS of the alkali-treated cyclic peptide aqueous solution, and the molecule stability was evaluated according to the following evaluation standards. It is preferable that the evaluation result satisfies the evaluation standard A, B, or C.
The conditions of the LC/MS used for the evaluation of molecule stability were set as follows. • LC apparatus: Prominence series (pump, column oven, autosampler, detector) (manufactured by Shimadzu Corporation) • MS detector: LC/MS2010EV (manufactured by Shimadzu Corporation) • Column: Cadenza CD-C18, inner diameter 2.0 mm×length 250 mm, particle size: 3 μm (manufactured by Imtakt Corporation) • Eluent A: a solution (pH 3) containing 10 mM ammonium formate as a solute, where the solvent is 100% water. • Eluent B: a solution (pH 3) containing 10 mM ammonium formate as a solute, where the solvent is acetonitrile/water=90/10. • Flow rate: 0.2 mL/min • Injection volume: 4 μL • Gradient: 0% to 30%: Eluent B (0 to 30 minutes), 100%: Eluent B (30 to 40 minutes), 0%: Eluent B (40 to 60 minutes)(B indicates the eluent B) • Column temperature: 45° C. • Ionization method: electrospray ionization (ESI) positive, ESI negative

For the next data set, the target named is human integrin αvβ5 (Homo sapiens, UniProt P06756+P18084). Put plainly: Evaluation of integrin binding property (surface plasmon resonance, Biacore 3000, immobilized cyclic peptide). The conditions noted are these: peptide immobilized on CM5 sensor chip; human integrin αvβ5 30-1,000 nM, 25° C., HEPES buffer with 5 mM magnesium chloride; read-out: Integrin binding property (dissociation constant). How it is done:
A commercially available CM5 sensor chip (a carboxymethyl dextran introduction type, manufactured by GE Healthcare) was set in a surface plasmon resonance apparatus (product name: Biacore 3000, manufactured by GE Healthcare), the sensor was stabilized at a flow rate of 10 μL/min of a 4-(2-hydroxyethyl)-1-piperazineethanesulfonic acid (HEPES) buffer solution (20 mM HEPES-HCl, 150 mM NaCl, pH 7.4) for surface plasmon resonance (SPR), and 70 μL of a mixed aqueous solution of 0.2 M 1-(3-dimethylaminopropyl)-3-ethylcarbodiimide (EDC) and 0.04 M N-hydroxysuccinimide (NHS) was added thereto. Then, 300 μL of the sample solution of each of the above cyclic peptides diluted to 0.2 g/L with the HEPES buffer solution was supplied to the sensor chip, blocking treatment was subsequently carried out with an ethanolamine solution, and washing was carried out with a sodium hydroxide aqueous solution, whereby immobilization was carried out. However, only for the cyclic peptide 22, in which the number of lysine residues having an amino group as the immobilizing functional group was 1, the sample solution to be supplied to the sensor chip was set to 5,000 μL instead of 300 μL. Similarly; 70 μL of the mixed aqueous solution of 0.2 M EDC and 0.04 M NHS was added to another flow channel of the same sensor chip without immobilizing the sample, and then blocking treatment and washing treatment were carried out. Hereinafter, the obtained immobilization-treated sensor chip is referred to as an “immobilization-treated sensor chip A”.
After adding human integrin αvβ5 for 10 minutes at 25° C., which was diluted to 30 nM using a HEPES buffer solution to which magnesium chloride was added to 5 mM, in each flow channel of the immobilization-treated sensor chip A prepared in (1) above, the same HEPES buffer solution (containing 5 mM magnesium chloride) was allowed to flow as a running buffer for 30 minutes, and measurement was carried out with Biacore 3000.
Then, a regeneration treatment of removing human integrin αvβ5 was carried out by allowing a 0.5 M EDTA aqueous solution to flow through each flow channel for 10 minutes. Further, the above-described measurement process consisting of adding integrin for 10 minutes, allowing a running buffer to flow for 30 minutes, carrying out measurement with Biacore 3000, and carrying out regeneration treatment with 0.5 M EDTA aqueous solution was carried out in the same manner for 100 nM human integrin αvβ5, 300 nM human integrin αvβ5, and 1,000 nM human integrin αvβ5. Dissociation constant between the cyclic peptide and human integrin αvβ5 was calculated from the difference between the value measured by Biacore 3000 in the flow channel immobilized with the cyclic peptide and the value measured by Biacore 3000 in the flow channel unimmobilized with the cyclic peptide, in a case where each concentration of human integrin αvβ5 was allowed to flow; and the integrin binding property was evaluated according to the following evaluation standards. It is preferable that the evaluation result satisfies the evaluation standard A, B, or C.

Sequence of human integrin αvβ5 (P06756 31-889 limits assumed): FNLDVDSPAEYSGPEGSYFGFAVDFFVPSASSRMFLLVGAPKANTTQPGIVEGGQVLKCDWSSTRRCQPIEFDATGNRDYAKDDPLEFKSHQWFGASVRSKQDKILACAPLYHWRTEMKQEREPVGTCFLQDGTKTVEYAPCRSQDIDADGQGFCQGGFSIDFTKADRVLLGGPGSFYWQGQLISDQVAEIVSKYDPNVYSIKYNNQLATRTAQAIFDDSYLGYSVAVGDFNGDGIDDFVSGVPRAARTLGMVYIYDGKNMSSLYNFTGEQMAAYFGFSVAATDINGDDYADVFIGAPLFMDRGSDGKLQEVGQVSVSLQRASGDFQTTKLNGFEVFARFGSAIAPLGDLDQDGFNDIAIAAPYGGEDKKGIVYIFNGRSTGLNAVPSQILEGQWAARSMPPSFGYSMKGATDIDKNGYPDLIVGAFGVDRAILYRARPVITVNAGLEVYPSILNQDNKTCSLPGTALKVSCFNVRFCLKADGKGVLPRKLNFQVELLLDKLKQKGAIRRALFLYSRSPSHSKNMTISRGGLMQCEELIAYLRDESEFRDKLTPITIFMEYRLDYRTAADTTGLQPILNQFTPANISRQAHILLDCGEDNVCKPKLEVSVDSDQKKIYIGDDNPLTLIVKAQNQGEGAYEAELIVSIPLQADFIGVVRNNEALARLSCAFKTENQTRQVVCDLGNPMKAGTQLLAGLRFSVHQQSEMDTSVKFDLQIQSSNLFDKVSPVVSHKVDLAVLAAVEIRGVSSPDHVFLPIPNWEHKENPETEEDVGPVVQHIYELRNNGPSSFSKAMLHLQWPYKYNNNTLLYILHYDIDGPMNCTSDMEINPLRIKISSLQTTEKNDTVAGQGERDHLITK
Sequence of human integrin αvβ5 (P06756 891-1048 partner limits assumed): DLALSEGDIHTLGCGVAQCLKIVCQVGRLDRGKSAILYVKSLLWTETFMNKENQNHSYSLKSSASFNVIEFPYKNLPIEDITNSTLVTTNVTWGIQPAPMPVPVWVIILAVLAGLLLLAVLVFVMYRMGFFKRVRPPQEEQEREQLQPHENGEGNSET
Sequence of human integrin αvβ5 (P18084 24-799): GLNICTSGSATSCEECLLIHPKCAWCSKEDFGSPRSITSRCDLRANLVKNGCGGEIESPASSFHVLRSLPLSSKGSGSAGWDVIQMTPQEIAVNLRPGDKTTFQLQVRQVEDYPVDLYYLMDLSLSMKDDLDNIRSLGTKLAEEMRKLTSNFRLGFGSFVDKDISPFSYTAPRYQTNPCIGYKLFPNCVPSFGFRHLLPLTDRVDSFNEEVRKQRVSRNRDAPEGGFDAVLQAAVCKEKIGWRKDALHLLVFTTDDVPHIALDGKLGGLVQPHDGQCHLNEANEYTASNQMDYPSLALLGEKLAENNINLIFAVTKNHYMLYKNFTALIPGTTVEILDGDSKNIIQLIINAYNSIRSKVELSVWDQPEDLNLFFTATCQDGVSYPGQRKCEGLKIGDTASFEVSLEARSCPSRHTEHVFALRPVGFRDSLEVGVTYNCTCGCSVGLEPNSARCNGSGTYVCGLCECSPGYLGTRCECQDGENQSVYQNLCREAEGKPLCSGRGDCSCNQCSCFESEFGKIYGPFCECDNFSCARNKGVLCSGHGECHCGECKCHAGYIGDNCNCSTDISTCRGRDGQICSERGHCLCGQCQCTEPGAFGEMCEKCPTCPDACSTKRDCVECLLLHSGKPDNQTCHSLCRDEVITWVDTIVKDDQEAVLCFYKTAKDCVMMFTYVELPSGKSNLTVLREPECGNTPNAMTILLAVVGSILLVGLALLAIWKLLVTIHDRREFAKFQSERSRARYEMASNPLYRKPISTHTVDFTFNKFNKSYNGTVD

As to `CC[C@H](C)[C@@H]1NC(=O)CSCC[C@@H](C(=O)N[C@@H](CCCCN)C(=O)N[C@@H](CCCCN)C(=O)N[C@@H](CCCCN)C(=O)O)NC(=O)[C@H](Cc2ccccc2)NC(=O)[C@@H]2CSCC(=O)NCCC[C@H](NC1=O)C(=O)N[C@@H](CCCNC(=N)N)C(=O)NCC(=O)N[C@@H](CC(=O)O)C(=O)N2` [Cyclic peptide 16] ({CH2CO}-I[Orn]RGDCF[hCys]KKK-OH; linker 2-6 via X2; thioether N-8), in data set [1], the “Molecule stability (cyclic peptide residual rate)” value was “A (The residual rate of the cyclic peptide is 70% or more.)”. For the same compound, the Kd at human integrin αvβ5 is less than 50 nM.
For `CC[C@H](C)[C@@H]1NC(=O)CSC[C@@H](C(=O)N[C@@H](CCCCN)C(=O)N[C@@H](CCCCN)C(=O)N[C@@H](CCCCN)C(=O)O)NC(=O)[C@H](Cc2ccccc2)NC(=O)[C@@H]2CCCCNC(=O)CSCC[C@H](NC1=O)C(=O)N[C@@H](CCCNC(=N)N)C(=O)NCC(=O)N[C@@H](CC(=O)O)C(=O)N2` [Cyclic peptide 17] ({CH2CO}-I[hCys]RGDKFCKKK-OH; linker 2-6 via X1; thioether N-8), in that order: “A (The residual rate of the cyclic peptide is 70% or more.)” and less than 50 nM.
For `CC[C@H](C)[C@@H]1NC(=O)CSCC[C@@H](C(=O)N[C@@H](CCCCN)C(=O)N[C@@H](CCCCN)C(=O)N[C@@H](CCCCN)C(=O)O)NC(=O)[C@H](Cc2ccccc2)NC(=O)[C@@H]2CCCCNC(=O)CSC[C@H](NC1=O)C(=O)N[C@@H](CCCNC(=N)N)C(=O)NCC(=O)N[C@@H](CC(=O)O)C(=O)N2` [Cyclic peptide 18] ({CH2CO}-ICRGDKF[hCys]KKK-OH; linker 2-6 via X1; thioether N-8), in that order: “A (The residual rate of the cyclic peptide is 70% or more.)” and less than 50 nM.
As to `CC[C@H](C)[C@@H]1NC(=O)CSC[C@@H](C(=O)N[C@@H](CCCCN)C(=O)N[C@@H](CCCCN)C(=O)N[C@@H](CCCCN)C(=O)O)NC(=O)[C@H](Cc2ccccc2)NC(=O)[C@@H]2CCNC(=O)CSCC[C@H](NC1=O)C(=O)N[C@@H](CCCNC(=N)N)C(=O)NCC(=O)N[C@@H](CC(=O)O)C(=O)N2` [Cyclic peptide 19] ({CH2CO}-I[hCys]RGD[Dab]FCKKK-OH; linker 2-6 via X1; thioether N-8), the “Molecule stability (cyclic peptide residual rate)” value in data set [1] is given as “A (The residual rate of the cyclic peptide is 70% or more.)”. Further, at human integrin αvβ5, the Kd lay in the range of 50 to 100 nM.
As for `CC[C@H](C)[C@@H]1NC(=O)CSCC[C@@H](C(=O)N[C@@H](CCCCN)C(=O)N[C@@H](CCCCN)C(=O)N[C@@H](CCCCN)C(=O)O)NC(=O)[C@H](Cc2ccccc2)NC(=O)[C@@H]2CCNC(=O)CSC[C@H](NC1=O)C(=O)N[C@@H](CCCNC(=N)N)C(=O)NCC(=O)N[C@@H](CC(=O)O)C(=O)N2` [Cyclic peptide 20] ({CH2CO}-ICRGD[Dab]F[hCys]KKK-OH; linker 2-6 via X1; thioether N-8), the “Molecule stability (cyclic peptide residual rate)” value in data set [1] is reported as “A (The residual rate of the cyclic peptide is 70% or more.)”. The Kd on human integrin αvβ5 was less than 50 nM.
Turning to `CC[C@H](C)[C@@H]1NC(=O)CSCC[C@@H](C(=O)N[C@@H](CCCCN)C(=O)O)NC(=O)[C@H](Cc2ccccc2)NC(=O)[C@@H]2CCCCNC(=O)CSCC[C@H](NC1=O)C(=O)N[C@@H](CCCNC(=N)N)C(=O)NCC(=O)N[C@@H](CC(=O)O)C(=O)N2` [Cyclic peptide 22] ({CH2CO}-I[hCys]RGDKF[hCys]K-OH; linker 2-6 via X1; thioether N-8), the “Molecule stability (cyclic peptide residual rate)” value in data set [1] is “A (The residual rate of the cyclic peptide is 70% or more.)”. Also, on human integrin αvβ5, the Kd is less than 50 nM.
For `CC[C@H](C)[C@@H]1NC(=O)CSC(C)(C)[C@@H](C(=O)N[C@@H](CCCCN)C(=O)N[C@@H](CCCCN)C(=O)N[C@@H](CCCCN)C(=O)O)NC(=O)[C@H](Cc2ccccc2)NC(=O)[C@@H]2CCSCC(=O)NCCC[C@H](NC1=O)C(=O)N[C@@H](CCCNC(=N)N)C(=O)NCC(=O)N[C@@H](CC(=O)O)C(=O)N2` [Cyclic peptide 23] ({CH2CO}-I[Orn]RGD[hCys]F[Pen]KKK-OH; linker 2-6 via X2; thioether N-8), in that order: “A (The residual rate of the cyclic peptide is 70% or more.)” and less than 50 nM.
For `CC1(C)SCC(=O)N[C@@H](CCC(=O)O)C(=O)N[C@H]2CCCNC(=O)CSCC[C@H](NC(=O)[C@H](CC(=O)O)NC(=O)CNC(=O)[C@H](CCCNC(=N)N)NC2=O)C(=O)N[C@@H](Cc2ccccc2)C(=O)N[C@@H]1C(=O)N[C@@H](CCCCN)C(=O)N[C@@H](CCCCN)C(=O)N[C@@H](CCCCN)C(=O)O` [Cyclic peptide 24] ({CH2CO}-E[Orn]RGD[hCys]F[Pen]KKK-OH; linker 2-6 via X2; thioether N-8), in that order: “A (The residual rate of the cyclic peptide is 70% or more.)” and less than 50 nM.
With `N=C(N)NCCC[C@@H]1NC(=O)[C@@H]2CCSCC(=O)NCCCC[C@H](NC(=O)[C@H](CC(=O)O)NC(=O)CNC1=O)C(=O)N[C@@H](Cc1ccccc1)C(=O)N[C@H](C(=O)N[C@@H](CCCCN)C(=O)N[C@@H](CCCCN)C(=O)N[C@@H](CCCCN)C(=O)O)CCSCC(=O)N[C@@H](Cc1ccc(O)cc1)C(=O)N2` [Cyclic peptide 25] ({CH2CO}-Y[hCys]RGDKF[hCys]KKK-OH; linker 2-6 via X1; thioether N-8), the “Molecule stability (cyclic peptide residual rate)” value in data set [1] was “A (The residual rate of the cyclic peptide is 70% or more.)”. Besides, the Kd at human integrin αvβ5 is less than 50 nM.
For `CC(C)C[C@@H]1NC(=O)CSCC[C@@H](C(=O)N[C@@H](CCCCN)C(=O)N[C@@H](CCCCN)C(=O)N[C@@H](CCCCN)C(=O)O)NC(=O)[C@H](Cc2ccccc2)NC(=O)[C@@H]2CCCCNC(=O)CSCC[C@H](NC1=O)C(=O)N[C@@H](CCCNC(=N)N)C(=O)NCC(=O)N[C@@H](CC(=O)O)C(=O)N2` [Cyclic peptide 26] ({CH2CO}-L[hCys]RGDKF[hCys]KKK-OH; linker 2-6 via X1; thioether N-8), in that order: “A (The residual rate of the cyclic peptide is 70% or more.)” and less than 50 nM.
For `C[C@@H](O)[C@@H]1NC(=O)CSCC[C@@H](C(=O)N[C@@H](CCCCN)C(=O)N[C@@H](CCCCN)C(=O)N[C@@H](CCCCN)C(=O)O)NC(=O)[C@H](Cc2ccccc2)NC(=O)[C@@H]2CCCCNC(=O)CSCC[C@H](NC1=O)C(=O)N[C@@H](CCCNC(=N)N)C(=O)NCC(=O)N[C@@H](CC(=O)O)C(=O)N2` [Cyclic peptide 27] ({CH2CO}-T[hCys]RGDKF[hCys]KKK-OH; linker 2-6 via X1; thioether N-8), in that order: “A (The residual rate of the cyclic peptide is 70% or more.)” and less than 50 nM.
